Results reported in BindingDB's records for doi:10.1124/mol.58.6.1310 (Pfizer, 2000).

Biological target: Glutamate receptor 3 (Rattus norvegicus, UniProt P19492)
Sequence (P19492 whole entry): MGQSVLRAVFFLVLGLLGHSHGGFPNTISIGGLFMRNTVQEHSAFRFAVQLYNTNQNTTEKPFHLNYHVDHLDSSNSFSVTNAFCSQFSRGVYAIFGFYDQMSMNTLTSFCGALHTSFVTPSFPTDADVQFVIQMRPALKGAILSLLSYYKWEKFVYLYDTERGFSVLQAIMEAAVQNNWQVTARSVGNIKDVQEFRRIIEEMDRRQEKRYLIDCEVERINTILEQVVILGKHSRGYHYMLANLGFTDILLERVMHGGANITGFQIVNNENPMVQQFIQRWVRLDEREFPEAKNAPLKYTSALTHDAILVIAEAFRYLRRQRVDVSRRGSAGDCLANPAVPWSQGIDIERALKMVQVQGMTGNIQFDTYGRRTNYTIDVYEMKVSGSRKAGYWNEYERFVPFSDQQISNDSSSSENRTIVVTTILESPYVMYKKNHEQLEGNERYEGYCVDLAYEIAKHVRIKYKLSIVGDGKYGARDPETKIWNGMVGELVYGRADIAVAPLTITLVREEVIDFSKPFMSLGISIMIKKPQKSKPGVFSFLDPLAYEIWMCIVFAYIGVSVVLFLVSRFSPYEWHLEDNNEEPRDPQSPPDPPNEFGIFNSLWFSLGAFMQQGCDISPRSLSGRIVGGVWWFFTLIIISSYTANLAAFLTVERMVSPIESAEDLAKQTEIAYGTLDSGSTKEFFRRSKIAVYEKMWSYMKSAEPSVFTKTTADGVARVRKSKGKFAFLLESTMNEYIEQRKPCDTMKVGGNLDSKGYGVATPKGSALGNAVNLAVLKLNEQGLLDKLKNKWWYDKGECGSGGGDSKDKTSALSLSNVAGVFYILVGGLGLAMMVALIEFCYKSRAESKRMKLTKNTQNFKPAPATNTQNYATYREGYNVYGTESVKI

| Ki [nM] | Compound |
| --- | --- |
| 25 | CCN(CC)Cc1cccc(/C=C/c2nc3ccc(F)cc3c(=O)n2-c2ccccc2Cl)n1 [(R)-3-(2-Chloro-phenyl)-2-[(E)-2-(6-diethylaminomethyl-pyridin-2-yl)-vinyl]-6-fluoro-3H-quinazolin-4-one] |
| > 10000 | Cc1ncccc1-n1c(/C=C/C2CS[C@H](C)N2)nc2ccccc2c1=O (stereo not given in full) [CP-471237] |
| 57 | Cc1ncccc1-n1c(/C=C/C2CSC(C)N2)nc2ccccc2c1=O (stereo not given) [CP-471236] |

| Compound | Ki [nM] |
| --- | --- |
| CC1=NN=C(c2ccc(N)cc2)c2cc3c(cc2C1)OCO3 [GYKI-52466] | > 10000 |
| N#Cc1cccc(/C=C/c2nc3ccc(F)cc3c(=O)n2-c2ccccc2Cl)n1 | 3 |
